Values joined by “and” are separate entries in the source; they are usually repeats but may differ in a detail not shown here. Equal entries are not always repeated. Where two headings read alike, the source gives them in different places.
Columns and labels:
K-562 = experiment: NCI-60 five-dose assay; type: cell-based, human
[1] = system: NCI 60 cancer cell line panel; experiment: NCI-60 five-dose assay, full-panel means; type: cell-based; details: for GI50: read-out: Mean GI50 (MID GI50, full-panel mean-graph mid-point)
Experimental: A number of our most promising compounds identified through preliminary cell viability testing (23c, 23d, 23f, 23h, 23l, 23m, 23n, 23o, 24f, 24l, 25n and 26n) were selected for NCI drug screening in the 60-cell-line panel. The panel includes nine subcategories based on cancer tissue types, which include leukemia, ovarian, central nervous system, breast, lung, prostate, skin, renal and colon cancer. The compounds were initially assessed in a one-dose assay at a fixed treatment concentration of 10 µM. The compounds selected for further investigation were progressed to a five-dose assay across the concentration ranges of 0.01, 0.1, 1, 10 and 100 µM [72]. The endpoints assessed in the screening protocol were GI50, TGI and LC50 [72].

CCRF-CEM = experiment: NCI-60 five-dose assay; type: cell-based, human
HG-3 cells [2] = experiment: alamarBlue cell viability assay; details: for IC50: HG-3, 24 h, read-out: HG-3 IC50
RPMI-8226 = experiment: NCI-60 five-dose assay; type: cell-based, human
[3] = system: HG-3 and PGA-1 cell lines; experiment: alamarBlue cell viability assay, mean of both CLL cell lines; type: cell-based, human; details: mean of HG-3 and PGA-1
leukemia cell panel = experiment: NCI-60 five-dose assay, leukemia cell panel mean; type: cell-based, human; details: mean across the six leukemia cell lines
MOLT-4 = experiment: NCI-60 five-dose assay; type: cell-based, human
PGA-1 cells [4] = experiment: alamarBlue cell viability assay; details: for IC50: read-out: PGA-1 IC50
HL-60(TB) = experiment: NCI-60 five-dose assay; type: cell-based, human
SR = experiment: NCI-60 five-dose assay; type: cell-based, human
PGA-1 cells [5] = details: 10 µM
[6] = HPLC stability study in phosphate buffers; type: physicochemical; details: for Half-life pH 4 / % remaining 24 h pH 4: pH 4 buffer; for Half-life pH 4 / % remaining 24 h pH 4 / Half-life pH 7.4 / % remaining 24 h pH 7.4 / Half-life pH 9 / % remaining 24 h pH 9: 37 °C; for % remaining 24 h pH 4 / % remaining 24 h pH 7.4 / % remaining 24 h pH 9: HPLC; for Half-life pH 7.4 / % remaining 24 h pH 7.4: pH 7.4 buffer; for Half-life pH 9 / % remaining 24 h pH 9: pH 9 buffer
Experimental: A preliminary stability study was carried out on selected chalcones, maleic anhydride and maleimide adducts at acidic, neutral and basic conditions (pH 4, 7.4 and 9) using HPLC to determine suitability for further preclinical investigations. […] A possible degradation route for the maleimide 23n could be through the hydrolysis of the cyclic imide of the maleimide ring, leading to the resultant amic acid product.
All samples were analyzed using acetonitrile–water (80:20%, 70:30%, 60:40% isocratic) as the mobile phase over 10 min and a flow rate of 1 mL/min. Stock solutions were prepared by dissolving 5 mg of compounds in a mobile phase ([(acetonitrile (80%): water (20%)], 10 mL). Anhydride 22h was not detected at its retention time of 5.2 min at pH 9.0. The data presented represent the results of single experiments.
The HPLC stability studies for compounds 21a, 21i, 22h, 23a, 23g, 23n, 24a, 24h, 26a and 26n were performed using a Symmetry® column (C18, 5 µm, 4.6 × 150 mm), a Waters 2487 Dual Wavelength Absorbance detector, and an HPLC pump: Waters 1525 binary and Autosampler; Waters 717 plus (Waters Corporation, Milford, MA, USA), mobile phase [(acetonitrile (80%) and water (20%)] with a typical run time of 10 min and a flow rate of 1 mL/min with detection at 254 nm. The selected compounds 21a, 21i, 22h, 23a, 23g, 23n, 24a, 24h, 26a and 26n (5 mg) in the mobile phase (10 mL) provided the stock solution for the analysis. The phosphate buffers were prepared at pH values of 4, 7.4 and 9, as described in the British Pharmacopoeia monograph 2019. The stock solution (30 µL) was added to the appropriate buffer (1 mL) and retained at 37 °C. Samples were then analyzed over the following 24-h period at selected time intervals (t = 0 min, 5 min, 30 min, 60 min, 90 min, 120 min and 24 h).

HG-3 cells [7] = system: HG-3 cells
[8] = mean over NCI 60 cell line panel

Structure (SMILES) | Mean TGI (MID TGI, total growth inhibition) [1, 8] [nM] | GI50 (K-562; K-562) [nM] | CC50 [1] [nM] | GI50 [1, 8] [nM] | GI50 (CCRF-CEM) [nM] | IC50 (HG-3 cells [2]) [nM] | GI50 (RPMI-8226; RPMI-8226) [nM] | IC50 [3] [nM] | GI50 (leukemia cell panel) [nM] | GI50 (MOLT-4; MOLT-4) [nM] | cell viability (PGA-1 cells [5]) [%] | IC50 (PGA-1 cells [4]; PGA-1, 24 h) [nM] | GI50 (HL-60(TB); HL-60(TB)) [nM] | GI50 (SR) [nM] | cell viability (HG-3 cells [7]; 10 µM) [%] | other results
O=C(/C=C/C12c3ccccc3C(c3ccccc31)C1C(=O)NC(=O)C12)c1ccccc1 (centres unmarked) [Compound 23f, (E)-9-(3-oxo-3-phenylprop-1-en-yl)-9,10-dihydro-9,10-[3,4]epipyrroloanthracene-12,14-dione] | 4570 |  |  |  |  |  |  |  |  |  |  |  |  |  |  | GI50 (K-562; Homo sapiens, K562, K-562): 1940 nM; GI50 ([1]; Homo sapiens, mean over NCI 60 cell line panel): 1820 nM; CC50 ([1]; Homo sapiens, mean over NCI 60 cell line panel, read-out: Mean LC50 (MID LC50)): 14800 nM; GI50 (CCRF-CEM; Homo sapiens): 2160 nM; cell viability (HG-3 cells [2]; HG-3, 10 µM, 24 h, vehicle = 100%, 10 µM): 2%; IC50 (HG-3 cells [2]; Homo sapiens): 3550 nM; GI50 (RPMI-8226; Homo sapiens, RPMI-8226, RPMI-8226): 1520 nM; IC50 ([3]; Homo sapiens, CLL cell): 7430 nM; GI50 (leukemia cell panel; Homo sapiens): 1810 nM; GI50 (MOLT-4; Homo sapiens, MOLT-4, MOLT-4): 2170 nM; IC50 (PGA-1 cells [4]; Homo sapiens, 24 h): 11300 nM; viability at 10 µM (PGA-1 cells [4]; Homo sapiens, 24 h, read-out: cell viability): 13.9%; GI50 (HL-60(TB); Homo sapiens, HL-60, HL-60(TB)): 1500 nM; GI50 (SR; Homo sapiens): 1570 nM
CCc1ccc(C(=O)/C=C/C23c4ccccc4C(c4ccccc42)C2C(=O)NC(=O)C23)cc1 (centres unmarked) [Compound 23c, 9-((E)-3-(4-Ethylphenyl)-3-oxoprop-1-en-1-yl)-9,10-dihydro-9,10-[3,4]epipyrroloanthracene-12,14-dione] | 4670 | 2420 | 17000 | 1900 | 2660 | 4610 | 1870 | 3670 | 1770 | 2230 | 7 | 2720 | 70 | 1370 |  | 
O=C(/C=C/C12c3ccccc3C(c3ccccc31)C1C(=O)NC(=O)C12)c1ccncc1 (centres unmarked) [Compound 23m] | 7760 | 1880 | 28200 | 2510 | 2390 |  | 2110 |  | 2080 | 2570 |  |  | 1760 | 1760 |  | 
O=C(/C=C/C12c3ccccc3C(c3ccccc31)C1C(=O)N(c3ccccc3)C(=O)C12)c1ccccc1 (centres unmarked) [Compound 24f, (E)-9-(3-Oxo-3-phenylprop-1-en-yl)-13-phenyl-9,10-dihydro-9,10-[3,4]epipyrroloanthracene-12,14-dione] | 19950 | 1390 | 72400 | 2090 | 1450 | 7350 | 1550 | 7240 | 1450 | 1230 | 26 | 7130 | 1020 | 2030 |  | 
O=C(/C=C/C12c3ccccc3C(c3ccccc31)C1C(=O)NC(=O)C12)c1ccc(I)cc1 (centres unmarked) [Compound 23g] |  |  |  |  |  | 4470 |  | 3620 |  |  | 2 | 2770 |  |  | 0 | recovery at 24 h ([6]; over the pH range studied (pH 4, 7.4 and 9)): < 50%; Half-life pH 4 [6]: 11.3 h; % remaining 24 h pH 4 [6]: 7.98%; Half-life pH 7.4 [6]: 8.9 h; % remaining 24 h pH 7.4 [6]: 11.02%; Half-life pH 9 [6]: 5.5 h; % remaining 24 h pH 9 [6]: 10.50%
O=C(/C=C/C12c3ccccc3C(c3ccccc31)C1C(=O)N(c3ccccc3)C(=O)C12)c1ccc(Cl)cc1 (centres unmarked) [Compound 24l, (E)-9-(3-(4-Chlorophenyl)-3-oxoprop-1-en-1-yl)-13-phenyl-9,10-dihydro-9,10-[3,4] epipyrroloanthracene-12,14-dione] | 10720 | 1550 | 43700 | 1700 | 570 | 3450 | 1160 | 1880 | 980 | 760 | 17 | 310 | 800 | 1070 | 24 | 
O=C(/C=C/C12c3ccccc3C(c3ccccc31)C1C(=O)NC(=O)C12)c1ccco1 (centres unmarked) [Compound 23o] | 3890 | 2570 | 11000 | 1780 | 1890 |  | 1680 |  | 1640 | 1770 |  |  | 320 |  |  | 
O=C(/C=C/C12c3ccccc3C(c3ccccc31)C1C(=O)N(c3ccc(C(=O)c4ccccc4)cc3)C(=O)C12)c1ccc(Br)cc1 (centres unmarked) [Compound 26a, (E)-13-(4-Benzoylphenyl)-9-(3-(4-bromophenyl)-3-oxoprop-1-en-1-yl)-9,10-dihydro-9,10-[3,4]epipyrroloanthracene-12,14-dione] |  |  |  |  |  |  |  |  |  |  | 29 |  |  |  | 31 | Half-life pH 4 [6]: > 24 h; % remaining 24 h pH 4 [6]: 64% and 63.95%; Half-life pH 7.4 [6]: > 24 h; % remaining 24 h pH 7.4 [6]: 61% and 61.03%; Half-life pH 9 [6]: > 24 h; % remaining 24 h pH 9 [6]: 66%; decrease in cell viability compared to 26f (HG-3 cells [2]; HG-3, 1 µM): 64%; decrease in cell viability compared to 26f (HG-3 cells [2]; HG-3, 10 µM): 29%; cell viability (HG-3 cells [7]; 1 µM): 55%; decrease in cell viability compared to 26f (PGA-1 cells [4]; PGA-1, 1 µM): 70%; decrease in cell viability compared to 26f (PGA-1 cells [4]; PGA-1, 10 µM): 20%
O=C(/C=C/C12c3ccccc3C(c3ccccc31)C1C(=O)NC(=O)C12)c1ccc(Cl)cc1Cl (centres unmarked) [Compound 23d] | 7580 | 2190 | 29500 | 2510 | 1240 |  | 1100 |  | 1590 | 2160 |  |  | 1580 | 1250 |  | 
O=C(c1ccccc1)c1ccc(N2C(=O)C3C4c5ccccc5C(/C=C/C(=O)c5ccccn5)(c5ccccc54)C3C2=O)cc1 (centres unmarked) [Compound 26n, (E)-13-(4-Benzoylphenyl)-9-(3-oxo-3-(pyridin-2-yl)prop-1-en-1-yl)-9,10-dihydro-9,10-[3,4]epipyrroloanthracene-12,14-dione] | 100000 | 1770 | 100000 | 7580 | 2590 | 1850 | 2490 | 1120 | 2070 | 2290 | 18 | 390 | 1900 | 1370 | 4 | Half-life pH 4 [6]: 8.5 h; % remaining 24 h pH 4 [6]: 10.97%; Half-life pH 7.4 [6]: 16.5 h; % remaining 24 h pH 7.4 [6]: 40.39%; Half-life pH 9 [6]: over 24 h; % remaining 24 h pH 9 [6]: 51.20%; decrease in cell viability compared to 26f (HG-3 cells [2]; HG-3, 1 µM): 34%; decrease in cell viability compared to 26f (HG-3 cells [2]; HG-3, 10 µM): 82%; decrease in cell viability compared to 26f (PGA-1 cells [4]; PGA-1, 1 µM): 20%; decrease in cell viability compared to 26f (PGA-1 cells [4]; PGA-1, 10 µM): 63%
O=C(/C=C/C12c3ccccc3C(c3ccccc31)C1C(=O)NC(=O)C12)c1ccc2ccccc2c1 (centres unmarked) [Compound 23p] |  |  |  |  |  | 1410 |  | 1360 |  |  | 0 | 1300 |  |  | 0 | cell viability (HG-3 cells [7]; 1 µM): 46%

From article PMC11359702, “Synthesis and Biochemical Evaluation of Ethanoanthracenes and Related Compounds: Antiproliferative and Pro-Apoptotic Effects in Chronic Lymphocytic Leukemia (CLL)” (Pharmaceuticals, 2024)
